How the values were obtained:
Assay type in all cases: in vivo
[1] = test system: Amaranthus palmeri having an Arg128Gly, Arg128Met, Gly210 deletion or Gly399Ala mutation in PPO2, waterhemp having a Gly210 deletion mutation in PPO2, ragweeds …; assay: Herbicidal effect, soil application with drift-reducing nozzle 7 days before sowing soybean (Example 1); settings: soil surface, TTI11004 nozzle, 10, 20, 40, 80, or 160 g/ha, 200 L/ha, greenhouse, soybean sown after 7 days, examined after 14 days
Description: Amaranthus palmeri having an Arg128Gly mutation in PPO2, Amaranthus palmeri having an Arg128Met mutation in PPO2, Amaranthus palmeri having a Gly210 deletion mutation in PPO2, Amaranthus palmeri having a Gly399Ala mutation in PPO2, waterhemp having a Gly210 deletion mutation in PPO2, and ragweeds having Arg128Leu in PPO2 are sown in a plastic pot. On the same day, a compound X is applied to the surface of soil by using a drift-reducing nozzle (TTI11004 manufactured by Teejet Company). The amount of the compound X to be applied is 10, 20, 40, 80, or 160 g/ha and the amount of spray dilution is 200 L/ha. Then, these weeds are cultivated in a greenhouse and Roundup Ready 2 Xtend soybean seeds are sown after 7 days, to examine the effects on the weeds and phytotoxic effects on the soybean after 14 days.

[2] = test system: Amaranthus palmeri having an Arg128Gly, Arg128Met, Gly210 deletion or Gly399Ala mutation in PPO2, waterhemp having a Gly210 deletion mutation in PPO2, ragweeds …; assay: Herbicidal effect, soil application with drift-reducing nozzle on the day of sowing weeds and soybean (Example 2); settings: soil surface on day of sowing, TTI11004 nozzle, 10, 20, 40, 80, or 160 g/ha, 200 L/ha, greenhouse, examined after 21 days
Description: Amaranthus palmeri having an Arg128Gly mutation in PPO2, Amaranthus palmeri having an Arg128Met mutation in PPO2, Amaranthus palmeri having a Gly210 deletion mutation in PPO2, Amaranthus palmeri having a Gly399Ala mutation in PPO2, waterhemp having a Gly210 deletion mutation in PPO2, ragweeds having Arg128Leu in PPO02, and a Roundup Ready 2 Xtend soybean are sown in a plastic pot. On the same day, a compound X is applied to the surface of soil by using a drift-reducing nozzle (TTI11004 manufactured by Teejet Company). The amount of the compound X to be applied is 10, 20, 40, 80, or 160 g/ha and the amount of spray dilution is 200 L/ha. Then, the weeds and soybean are cultivated in a greenhouse to examine the effects on the weeds and phytotoxic effects on the soybean after 21 days.

[3] = test system: Amaranthus palmeri having an Arg128Gly, Arg128Met, Gly210 deletion or Gly399Ala mutation in PPO2, waterhemp having a Gly210 deletion mutation in PPO2, ragweeds …; assay: Herbicidal effect, foliar treatment with drift-reducing nozzle 21 days after sowing (Example 3); settings: foliar treatment 21 days after sowing, TTI11004 nozzle, 10, 20, 40, 80, or 160 g/ha, 200 L/ha, greenhouse, examined 14 days after treatment
Description: Amaranthus palmeri having an Arg128Gly mutation in PPO2, Amaranthus palmeri having an Arg128Met mutation in PPO2, Amaranthus palmeri having a Gly210 deletion mutation in PPO2, Amaranthus palmeri having a Gly399Ala mutation in PPO2, waterhemp having a Gly210 deletion mutation in PPO2, ragweeds having Arg128Leu in PPO02, and a Roundup Ready 2 Xtend soybean are sown in a plastic pot. Then, the weeds and soybean are cultivated in a greenhouse and a compound X is applied to perform foliar treatment by using a drift-reducing nozzle (TTI11004 manufactured by Teejet Company) 21 days after sowing. The amount of the compound X to be applied is 10, 20, 40, 80, or 160 g/ha and the amount of spray dilution is 200 L/ha. Then, the weeds and soybean are further cultivated in a greenhouse to examine the effects on the weeds and phytotoxic effects on the soybean 14 days after treatment.

Measured: effects on the weeds

CCOC(=O)COc1ncccc1Oc1cc(-n2c(=O)cc(C(F)(F)F)n(C)c2=O)c(F)cc1Cl [compound X, Ethyl [3-[2-chloro-4-fluoro-5-(l-methyl-6-trifluoromethyl-2,4-dioxo-1,2,3,4-tetrahydropyrimidine-3-yl)phenoxy]-2-pyridyloxy]acetate]
valuable effect: all assays above
